Six compounds from patent US5225411A, “Disubstituted polymethyleneimines” (priority 1990, dated 1993) can be followed below.

Each structure is given as a SMILES string.

Test [1] has as its system murine leukaemia P 388/ADR 10. Briefly: Evaluation of the increase in cytotoxicity of adriamycin on the line P 388/ADR-10 in vitro (reversion factor). The class given is cell-based. As to conditions: adriamycin, P 388/ADR-10, 48 h, TOX = toxic. The procedure:
In this study, the cytotoxicity of adriamycin was measured in the absence and in the presence of the reversing compound.
The compounds tested for their capacity to reverse MDR are added at the same time as the cytotoxic agent. The cells are then incubated for 48 hours.

The test system of test [2] is Chinese Hamster Pulmonary Line DC-3F/AD. Briefly: Increase in the cytotoxicity of actinomycin D on the Chinese hamster pulmonary line DC-3F/AD.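 Note: DC-3F/AD is an extremely resistant cell line whose resistance factor exceeds 10,000.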 Type of test: cell-based. The conditions noted are these: 4 days.
Text: The cytotoxic agent used was actinomycin D.
Line DC-3F/AD is an extremely resistant line. Its resistance factor is higher than 10,000.
Another test concerns line DC-3F/AD. Nature of the test: Flow cytometry, increase in fluorescence of ADR on the line DC-3F/AD. The class given is cell-based, Chinese Hamster. The conditions noted are these: ADR 50 μM, 5 h. The method, then:
(§1) By measuring that fluorescence it is possible to obtain a relative measurement of the intracellular concentration of ADR.
(§2) […] After 5 hours' incubation, the intracellular uptake of adriamycin was evaluated by FCM.
(§3) The analysis of each of the samples was carried out on a total of 10,000 cells at a speed of 1000 cells/sec.
(§4) The results were presented in the form of linear histograms of the intracellular ADR fluorescence.
(§5) Expression of the Results
(§6) For each of the histograms, the channel mean fluorescence was determined by the apparatus information system. For all experiments:
(§7) A negative control (cells without ADR) fixed the autofluorescence threshold.
(§8) A positive control (cells with ADR) determined the MEAN value=MN1.
(§9) The "test" tubes (cells with ADR and with compound) were used to determine, for each of the compounds and at each of the concentrations, the MEAN values=MN2.
(§10) The results are expressed in the form of variations from the mean fluorescence obtained for each of the "test" tubes (MN2) in relation to the mean fluorescence obtained with the […] (MNl) : VAR-MEAN=MN2 -MN1. The parameter expressed is thus the increase in the fluorescence of adriamycin in the presence of the tested compounds.
(In flow cytometry, cells or beads pass a laser one at a time.)

A further test has as its system line P 388/ADR 10. Nature of the test: Flow cytometry, increase in fluorescence of ADR on the line P 388/ADR 10. The class given is cell-based, murine. The conditions noted are these: ADR 50 μM, 5 h. The procedure: as §1, §2, §3, §4, §5, §6, §7, §8, §9, §10

Consider `C=CCNc1nc(NCCC)nc(N2CCC(NCC(c3ccccc3)c3ccccc3)CC2)n1` [Example 7, 1-(4-propylamino-6-allylamino-2-s-triazinyl)-4-(2,2-diphenylethylamino)piperidine], for which the “Reversion Factor (RF)” value in test [1] (compound 2.5 μM) is recorded as 102.8; in test [1] (compound 5 μM), 135.6; in test [1] (compound 10 μM) it was “TOX”; in test [2] (compound 5 μM), 992; in test [2] (compound 10 μM), 2339. In addition, the “Increase in fluorescence of ADR (VAR-MEAN = MN2 - MN1)” value (“Increase in fluorescence of ADR” below) in the test with line DC-3F/AD (compound 2 μM) came to 14.47; in the test on line DC-3F/AD (compound 5 μM), 26.0; in the test on line DC-3F/AD (compound 10 μM), 34.17; in the test with line DC-3F/AD (compound 20 μM), 36.63; in the test on line P 388/ADR 10 (compound 2 μM), 48.75; in the test on line P 388/ADR 10 (compound 5 μM) it was 72.6. In addition, the “Increase in fluorescence of ADR” value in the test with line P 388/ADR 10 (compound 10 μM) is given as 80.9; in the test with line P 388/ADR 10 (compound 20 μM), 87.3.
For the compound `C=CCNc1nc(NCC=C)nc(NC2CCN(CC(c3ccccc3)c3ccccc3)CC2)n1` [Example 3, 4-[4,6-bis(allylamino)-2-s-triazinyl]amino-1-(2,2diphenylethyl)piperidine], the “Reversion Factor (RF)” value in test [1] (compound 2.5 μM) came to 39; in test [1] (compound 5 μM), 70; in test [1] (compound 10 μM) it was 134.8; in test [2] (compound 2.5 μM), 38; in test [2] (compound 5 μM), 104; in test [2] (compound 10 μM) it was 240. The “Increase in fluorescence of ADR” value in the test on line DC-3F/AD (compound 2 μM) is listed as 8.0; in the test with line DC-3F/AD (compound 5 μM), 19.9; with line DC-3F/AD (compound 10 μM), 21.6; with line DC-3F/AD (compound 20 μM) it was 19.3; in the test on line P 388/ADR 10 (compound 2 μM), 29.9; with line P 388/ADR 10 (compound 5 μM) it was 46.2. For the same compound, the “Increase in fluorescence of ADR” value in the test on line P 388/ADR 10 (compound 10 μM) is reported as 66.0; in the test on line P 388/ADR 10 (compound 20 μM) it was 73.1.
As to `C=CCNc1nc(NCC=C)nc(N2CCC(NCC(c3cc(OC)cc(OC)c3)c3ccccc3C)CC2)n1` (stereo not shown) [Example 10, 1-[4,6-bis(allylamino)-2-s-triazinyl]-4-[2-(3,5-dimethoxyphenyl)-2-(2-methylphenyl)ethylamino]piperidine], the “Reversion Factor (RF)” value in test [1] (compound 2.5 μM) is listed as 125.1; in test [1] (compound 5 μM), 75.3; in test [1] (compound 10 μM), “TOX”; in test [2] (compound 2.5 μM), 259; in test [2] (compound 5 μM) it was 1347; in test [2] (compound 10 μM), “TOX”. In addition, the “Increase in fluorescence of ADR” value is 14.8 in the test with line DC-3F/AD (compound 2 μM); 24.7 in the test on line DC-3F/AD (compound 5 μM); 26.5 in the test on line DC-3F/AD (compound 10 μM); 28.2 in the test with line DC-3F/AD (compound 20 μM); 52.0 in the test with line P 388/ADR 10 (compound 2 μM); 75.3 with line P 388/ADR 10 (compound 5 μM). In addition, the “Increase in fluorescence of ADR” value stood at 84.0 with line P 388/ADR 10 (compound 10 μM) and 78.0 in the test with line P 388/ADR 10 (compound 20 μM).
On to `C=CCNc1nc(NCC=C)nc(N2CCC(NCC(c3ccccc3)c3ccccc3)CC2)n1` [Example 5, 1-[4,6-bis(allylamino)-2-s-triazinyl]-4-(2,2-diphenylethylamino)piperidine], for which the “Reversion Factor (RF)” value in test [1] (compound 2.5 μM) is 100; in test [1] (compound 5 μM), 189; in test [1] (compound 10 μM) it was 277.4; in test [2] (compound 5 μM), 658; in test [2] (compound 10 μM), 1504; in test [2] (compound 20 μM) it was “TOX”. In addition, the “Increase in fluorescence of ADR” value in the test on line DC-3F/AD (compound 2 μM) stood at 15.5; in the test on line DC-3F/AD (compound 5 μM), 31.3; in the test on line DC-3F/AD (compound 10 μM), 34.65; in the test with line DC-3F/AD (compound 20 μM), 37.9; with line P 388/ADR 10 (compound 2 μM), 45.25; in the test on line P 388/ADR 10 (compound 5 μM), 60.7. Also, the “Increase in fluorescence of ADR” value with line P 388/ADR 10 (compound 10 μM) stood at 79.47; in the test on line P 388/ADR 10 (compound 20 μM), 76.25.
`C=CCNc1nc(NCCC)nc(N2CCC(NCCC(c3ccccc3)c3ccccc3)CC2)n1` [Example 8, 1-(4-propylamino-6-allylamino-2-s-triazinyl)-4-(3,3diphenylpropylamino)piperidine]: the “Reversion Factor (RF)” value in test [1] (compound 2.5 μM) is 75.9; in test [1] (compound 5 μM) it was “TOX”; in test [1] (compound 10 μM), “TOX”; in test [2] (compound 2.5 μM), 16.5; in test [2] (compound 5 μM), “TOX”; in test [2] (compound 10 μM), “TOX”. For the same compound, the “Reversion Factor (RF)” value in test [2] (compound 20 μM) is “TOX”. For the same compound, the “Increase in fluorescence of ADR” value in the test with line DC-3F/AD (compound 2 μM) is listed as 4.5; in the test on line DC-3F/AD (compound 5 μM) it was 17.85; in the test on line DC-3F/AD (compound 10 μM), 27.15; in the test with line DC-3F/AD (compound 20 μM) it was “TOX”; in the test with line P 388/ADR 10 (compound 2 μM), 38.9; in the test on line P 388/ADR 10 (compound 5 μM), 60.1. Moreover, the “Increase in fluorescence of ADR” value in the test on line P 388/ADR 10 (compound 10 μM) and in the test with line P 388/ADR 10 (compound 20 μM) was “TOX” in each case.
In the case of `C=CCNc1nc(NCC=C)nc(N2CCC(NCCC(c3ccccc3)c3ccccc3)CC2)n1` [Example 6, 1-[4,6-bis(allylamino)-2-s-triazinyl]-4-(3,3-diphenylpropylamino)-piperidine], the “Reversion Factor (RF)” value in test [1] (compound 2.5 μM) is on record as 54.4; in test [1] (compound 5 μM) it was “TOX”; in test [1] (compound 10 μM), “TOX”; in test [2] (compound 2.5 μM), < 16.5; in test [2] (compound 5 μM), 220; in test [2] (compound 10 μM) it was “TOX”. Besides, the “Reversion Factor (RF)” value in test [2] (compound 20 μM) is on record as “TOX”. For the same compound, the “Increase in fluorescence of ADR” value in the test on line DC-3F/AD (compound 2 μM) is listed as 3.9; with line DC-3F/AD (compound 5 μM) it was 21.5; in the test on line DC-3F/AD (compound 10 μM) it was 29.75; in the test with line DC-3F/AD (compound 20 μM) it was “TOX”; in the test with line P 388/ADR 10 (compound 2 μM), 32.9; in the test with line P 388/ADR 10 (compound 5 μM), 60.1. In addition, the “Increase in fluorescence of ADR” value with line P 388/ADR 10 (compound 10 μM) is on record as 55.8; with line P 388/ADR 10 (compound 20 μM), “TOX”.
